Laboratory results published in patent US11708283B2, “Metal-chelating compositions and their use in methods of removing or inhibiting barium scale” (CORNELL UNIVERSITY, priority 2018, dated 2023).
Where two headings read alike, the source gives them in different places.

Experiments:
[1] = Thermodynamic stability constants of Sr^2+ complexes by pH-potentiometry; type: binding; conditions: I = 0.1M KCl; for pSr (−log [M^2+]free): [M^2+] = 10^−6M, [L] = 10^−5M, pH 7.4; for log K′Sr (conditional stability constant): pH 7.4, 25° C., calculated from protonation and stability constants
Experimental: Potentiometric measurements were carried out using a titrator equipped with a combination electrode and an exchange unit with an automatic burette (10 mL). The titration vessel was fitted with a removable glass cell (˜70 mL) and was thermostated at 25° C. using a circulating water bath. CO2 was excluded from the vessel prior to and during the titrations using a small positive pressure of Ar that was passed through a solution of 30 wt % KOH. Carbonate-free KOH (˜0.1 M) was prepared by dissolving KOH pellets (semiconductor grade, 99.99% trace metals basis) in freshly boiled water (≥18 MΩ-cm) and was standardized by potentiometric titration against potassium hydrogen phthalate. Hydrochloric acid (0.1 M) was standardized against freshly prepared KOH. Titration solutions were maintained at a constant ionic strength of 0.1 M using KCl (≥99.5%) and were equilibrated for 15 minutes prior to the addition of titrant. Before every titration, the electrode was calibrated in terms of hydrogen ion concentration by titrating a solution of standardized HCl (5 mM) containing supporting electrolyte (95 mM) with standardized KOH (2 mL). Data within the pH ranges of 2.5-3.2 and 10.8-11.2 were analyzed using software to obtain the standard electrode potential (E0) and slope factor. Owing to the sharp rise in pH at the titration endpoint (pH 3.2-10.8), data obtained in this region are subject to significant error and were therefore excluded from the calibration analysis. A pKw value of 13.78 was taken from the literature (Baes, C. F.; Mesmer, R. E. The Hydrolysis of Cations; Wiley: New York, 1976).
ICP standards of calcium, strontium, and barium in dilute HNO3 were employed in the titrations. The exact amount of HNO3 was determined by potentiometric titration of each metal solution (1 mL), diluted to a known volume with H2O, with standardized KOH to pH ˜7; under these conditions, no precipitation of metal hydroxide species was observed. The data were analyzed using a Gran plot (Gran, G. Analyst 1952, 77, 661-671). Stability constants were measured for the alkaline earth complexes of macropa^2− and macropaquin^2− by adding standardized KOH to a solution (20 mL) containing ligand (0.02 mmol), metal (0.02 mmol), 1 M KCl (1.9 mmol), and a portion of 0.1 M HCl sufficient to bring the total acid content (HCl+HNO3) to 0.1 mmol. The titration method employed either a 0.1 mV/min or 0.2 mV/min drift limit with a maximum wait time of 300 seconds between addition of base and measurement. […] Data points (˜30-90) obtained over the pH ranges of 2.5-10.5 (Ba-macropa), 2.8-10.5 (Sr-macropa), 4.0-10.5 (Ca-macropa), 2.7-11.3 (Ba-macropaquin), and 4.0-11.3 (Sr- and Ca-macropaquin) were included in the refinements. These pH ranges reflect the portion of the titration curves in which metal binding is occurring. Using the protonation constants measured for each ligand, the stability constants (Equations 2-4, below) were calculated from the average of at least 3 independent titrations using appropriate software. Proton concentration was admitted as a refineable parameter. Ligand (L) concentration was taken as the averaged value obtained from the refinements of ligand-only titrations. The errors given for the stability constants correspond to one standard deviation.
The alkaline earth stability constants for macroquin-SO3^4− were determined using a system in which each ligand titration was paired with a ligand-metal titration. These pairwise titrations permitted the ligand concentration for the metal-ligand titrations to be known with reasonable certainty from the refinement of the ligand-only titrations. Immediately following a titration of the free ligand with HCl, metal ion (0.013 mmol) was added and the solution was equilibrated under Ar for 15 minutes before the addition of standardized KOH. The same titration method was employed as described above for macropa^2− and macropaquin^2−. […]

[2] = literature values, cited from earlier work; for log Ka1 / log Ka2 / log Ka3 / log Ka4: I = 0.1M KCl (footnotes b, c, d)
[3] = cited from earlier work
[4] = cited from earlier work; remark: listed apart in the source
[5] = literature values (footnotes b, c); cited from earlier work
[6] = Dissolution of barite ore in columns (ligand efficiency, GFAAS); conditions: ~48 mM ligand, soak 1 hour
[7] = literature values (footnotes b, c)
[8] = bracketed literature value, I = 0.1M KNO3 (footnote e)

log KSrHL ([1]; pH-potentiometry, 25° C.)	log KSrL ([1]; pH-potentiometry, 25° C.)	log KSrH2L ([1]; pH-potentiometry, 25° C.)	Compound	pSr (−log [M^2+]free) ([1]; 25° C.)	log K′Sr (conditional stability constant) [1]	log Ka1 [2]	log Ka2 [2]	log Ka3 [2]	log Ka4 [2]	log KCaHL [3, 7]	log KSrHL [4, 7]	log KBaL [5]	ligand efficiency (percent of ligand saturated with Ba^2+) ([6]; pH 8, barite 3 g)	ligand efficiency (percent of ligand saturated with Ba^2+) ([6]; pH 11, barite 3 g)	log Ka5 ([2]; I = 0.1M KCl (footnotes c, d))	log KCaL [3, 8]	log KSrHL [4, 8]	log KSrL [4, 8]
8.92(2)	9.19(5)		O=C(O)c1cccc(CN2CCOCCOCCN(Cc3ccc4cccc(O)c4n3)CCOCCOCC2)n1 [macropaquin, 6-((16-((8-hydroxyquinolin-2-yl)methyl)-1,4,10,13-tetraoxa-7,16-diazacyclooctadecan-7-yl)methyl)picolinic acid]	8.50	7.54													
			O=C(O)CN1CCN(CC(=O)O)CCN(CC(=O)O)CCN(CC(=O)O)CC1 [DOTA, reference compound]	9.30	8.35	11.14	9.69	4.85	3.95	3.60	4.52	11.75						
8.34(4)	8.62(2)	6.920(3)	O=S(=O)(O)c1ccc(O)c2nc(CN3CCOCCOCCN(Cc4ccc5c(S(=O)(=O)O)ccc(O)c5n4)CCOCCOCC3)ccc12 [macroquin-SO3, 2,2′-((1,4,10,13-tetraoxa-7,16-diazacyclooctadecane-7,16-diyl)bis(methylene))bis(8-hydroxyquinoline-5-sulfonic acid)]	6.70	5.64													

Compound	log KSrHL ([1]; pH-potentiometry, 25° C.)	log KSrL ([1]; pH-potentiometry, 25° C.)	log KSrH2L ([1]; pH-potentiometry, 25° C.)	pSr (−log [M^2+]free) ([1]; 25° C.)	log K′Sr (conditional stability constant) [1]	log Ka1 [2]	log Ka2 [2]	log Ka3 [2]	log Ka4 [2]	log KCaHL [3, 7]	log KSrHL [4, 7]	log KBaL [5]	ligand efficiency (percent of ligand saturated with Ba^2+) ([6]; pH 8, barite 3 g)	ligand efficiency (percent of ligand saturated with Ba^2+) ([6]; pH 11, barite 3 g)	log Ka5 ([2]; I = 0.1M KCl (footnotes c, d))	log KCaL [3, 8]	log KSrHL [4, 8]	log KSrL [4, 8]
O=C(O)c1cccc(CN2CCOCCOCCN(Cc3cccc(C(=O)O)n3)CCOCCOCC2)n1 [macropa, 6,6-((1,4,10,13-tetraoxa-7,16-diazacyclooctadecane-7,16-diyl)bis(methylene))dipicolinic acid]	3.35(8)	9.442(4)		10.02	9.07	(7.41)^d	(6.85)	(3.32)	(2.36)				40%	40%	(1.69)	[5.25]^e	[4.16]	[9.57]
